Laboratory results: patent publication US12565501B2, “Muscarinic acetylcholine M1 receptor antagonists” (Contineum Therapeutics, Inc., priority 2019, dated 2026)

How the values were obtained:
Type in all cases: cell-based
human M1 receptor = molecular target: T1, human M1 receptor (Homo sapiens, UniProt P11229); test: In vitro functional assay of muscarinic acetylcholine receptor activity (aequorin calcium flux, reversal of EC80 acetylcholine response); conditions: CHO-K1 cells stably expressing human M1 receptor with aequorin; acetylcholine at EC80; calcium flux (luminescence); read-out: M1 IC50
T1 sequence (P11229 1-460): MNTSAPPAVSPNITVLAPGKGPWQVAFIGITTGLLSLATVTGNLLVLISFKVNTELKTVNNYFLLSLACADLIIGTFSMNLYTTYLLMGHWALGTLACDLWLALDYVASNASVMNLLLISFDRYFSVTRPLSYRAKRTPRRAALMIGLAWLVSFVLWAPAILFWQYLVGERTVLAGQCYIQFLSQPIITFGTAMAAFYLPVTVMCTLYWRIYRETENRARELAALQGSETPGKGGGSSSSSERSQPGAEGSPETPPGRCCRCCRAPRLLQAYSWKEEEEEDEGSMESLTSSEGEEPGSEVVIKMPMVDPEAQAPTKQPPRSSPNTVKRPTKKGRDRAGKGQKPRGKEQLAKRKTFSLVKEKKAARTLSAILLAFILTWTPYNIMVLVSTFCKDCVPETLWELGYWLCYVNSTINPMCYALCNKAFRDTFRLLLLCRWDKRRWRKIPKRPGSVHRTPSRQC
In short: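 Antagonist mode: compound (final 0.1% DMSO) and coelenterazine-loaded M1/aequorin CHO-K1 cells incubated 30 min in the dark before EC80 acetylcholine addition. Calcium flash integrated as 40 s luminescence AUC; IC50 derived from dose-response curves.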

human M4 receptor = molecular target: T2, human M4 receptor (Homo sapiens, UniProt P08173); test: In vitro functional assay, reversal of EC80 acetylcholine response in CHO-K1 aequorin cells
T2 sequence (P08173 1-479): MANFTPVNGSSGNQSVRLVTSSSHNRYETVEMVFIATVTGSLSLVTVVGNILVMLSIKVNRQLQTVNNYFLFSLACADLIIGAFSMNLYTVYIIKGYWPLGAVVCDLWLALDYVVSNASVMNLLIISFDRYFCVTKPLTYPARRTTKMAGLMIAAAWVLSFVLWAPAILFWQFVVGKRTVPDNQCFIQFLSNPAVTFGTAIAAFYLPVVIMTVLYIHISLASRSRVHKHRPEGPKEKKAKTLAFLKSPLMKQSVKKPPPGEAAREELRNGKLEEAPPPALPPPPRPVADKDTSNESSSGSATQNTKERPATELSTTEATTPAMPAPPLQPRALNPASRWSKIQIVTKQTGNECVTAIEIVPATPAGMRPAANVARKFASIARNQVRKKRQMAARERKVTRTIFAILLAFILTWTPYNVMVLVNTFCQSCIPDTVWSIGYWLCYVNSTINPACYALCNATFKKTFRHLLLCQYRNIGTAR
Description: (§1) CHO-K1 cells stably expressing human M1 receptor with aequorin (Perkin Elmer) were grown in F12 media (Gibco) containing 10% FBS (ATCC), 0.4 mg/mL geneticin (Sigma-Aldrich) and 0.25 mg/mL Zeocin (Invitrogen). Cells were grown as per the manufacturer's protocol. For compound testing, cells were grown to confluency and detached gently with Accutase (Sigma-Aldrich) followed by centrifugation for 5 min at 150× g. Cells were then re-suspended in assay buffer (i.e. DMEM/F-12 HEPES without phenol red (Invitrogen) with 0.1% BSA (Sigma-Aldrich)) at a density of 5×10^6 cells/ml. Under sterile conditions, 5 μM coelenterazine (Invitrogen) was added to the cells, mixed, then incubated at room temperature protected from light, with gentle agitation, for 4 h.
(§2) Primary compound plates were prepared in 100% DMSO in opaque 96-well plates (VWR) and serially diluted in half log increments. Secondary compound plates were prepared at 3× concentration in assay buffer. Compounds were added to white, clear bottom tissue culture treated 96-well plates (Fisher Scientific). Coelenterazine-loaded cells were then added at 5×10^5 cells/well.
(§3) Compounds and cells were incubated at room temperature for 30 min in the dark. Acetylcholine at the EC80 concentration was added and calcium flux measured using a FlexStation 3 (Molecular Devices). Sigmoidal dose-response curves were generated by measuring luminescence over 40 sec and calculating the area under the curve. Dose response curves and IC50 values were generated using Prism (GraphPad). Compounds were tested at a final concentration range of 100 μM to […] in 0.1% DMSO.
(§4) CHO-K1 cells stably expressing human M2, M3 and M4 receptors, respectively, with aequonin (Perkin Elmer) were used to assess a test compound's ability to dose-dependently reverse the EC80 acetylcholine response. The IC50 of the compounds was calculated from the dose response curve.

human M3 receptor = human M3 receptor (Homo sapiens, UniProt P20309); test: as above
Chain of human M3 receptor (P20309 whole entry): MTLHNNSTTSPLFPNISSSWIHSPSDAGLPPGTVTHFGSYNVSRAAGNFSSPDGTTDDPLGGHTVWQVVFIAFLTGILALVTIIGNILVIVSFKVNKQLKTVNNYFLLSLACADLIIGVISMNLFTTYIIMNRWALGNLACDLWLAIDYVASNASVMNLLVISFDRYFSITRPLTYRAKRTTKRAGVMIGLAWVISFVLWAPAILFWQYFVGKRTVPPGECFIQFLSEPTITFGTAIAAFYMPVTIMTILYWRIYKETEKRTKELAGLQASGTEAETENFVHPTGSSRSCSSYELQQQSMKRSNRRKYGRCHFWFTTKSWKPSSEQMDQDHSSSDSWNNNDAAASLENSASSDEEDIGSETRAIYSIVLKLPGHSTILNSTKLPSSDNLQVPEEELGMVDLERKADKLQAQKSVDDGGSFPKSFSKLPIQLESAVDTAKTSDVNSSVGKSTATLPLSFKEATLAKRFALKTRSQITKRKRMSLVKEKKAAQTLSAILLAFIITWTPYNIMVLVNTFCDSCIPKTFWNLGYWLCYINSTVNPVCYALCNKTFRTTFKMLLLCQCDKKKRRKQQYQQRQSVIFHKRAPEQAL
Description: as §1, §2, §3, §4

human M2 receptor = molecular target: T3, human M2 receptor (Homo sapiens, UniProt P08172); test: as above
T3 sequence (P08172 1-466): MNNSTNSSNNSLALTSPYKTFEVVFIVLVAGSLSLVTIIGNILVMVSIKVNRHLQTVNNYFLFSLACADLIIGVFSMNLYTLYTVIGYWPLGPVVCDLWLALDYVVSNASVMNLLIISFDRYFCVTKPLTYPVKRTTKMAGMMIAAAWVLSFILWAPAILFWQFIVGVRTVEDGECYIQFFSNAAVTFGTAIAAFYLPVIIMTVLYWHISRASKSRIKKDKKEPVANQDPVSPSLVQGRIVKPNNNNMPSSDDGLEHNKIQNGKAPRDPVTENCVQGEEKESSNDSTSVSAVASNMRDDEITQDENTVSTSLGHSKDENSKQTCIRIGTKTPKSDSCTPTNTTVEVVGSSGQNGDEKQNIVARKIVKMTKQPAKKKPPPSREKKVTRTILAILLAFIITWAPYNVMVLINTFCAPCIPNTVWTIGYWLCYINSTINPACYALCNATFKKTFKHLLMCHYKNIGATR
Description: as §1, §2, §3, §4

N#Cc1ccc(N2C3CCC2CN(C(=O)CCC(F)(F)c2cccn4ncnc24)C3)nc1 [Example 158, 6-(3-(4-([1,2,4]triazolo[1,5-a]pyridin-8-yl)-4,4-difluorobutanoyl)-3,8-diazabicyclo[3.2.1]octan-8-yl)nicotinonitrile]
IC50 (human M1 receptor): < 10 nM | IC50 (human M4 receptor): 100 to 1000 nM | IC50 (human M3 receptor): 100 to 1000 nM | IC50 (human M2 receptor): 1000 to 10000 nM
